Measurements published in ChEMBL document CHEMBL3784920, “Synthesis and Pharmacological Evaluation of Novel Adenine-Hydrogen Sulfide Slow Release Hybrids Designed as Multitarget Cardioprotective Agents” (J Med Chem, 2016).
Active and inactive are the calls of the source. No cut-off for these calls is given here.

What was measured:
RLF-6 [1] = test: Induction of H2S release in RLF-6 cells assessed as cGMP accumulation after 5 mins by enzyme immuno assay; format: functional, cell-based; conditions: Rattus norvegicus
Oryctolagus cuniculus [2] = test: Toxicity in New Zealand white rabbit assessed as heart weight at 1.79 umol/kg, administered as single bolus dose (reference value: 7.2 +/- 0.3 g); format: organism-based; conditions: in vivo
Oryctolagus cuniculus [3] = test: Toxicity in New Zealand white rabbit myocardial ischemia/reperfusion injury model assessed as mean blood pressure at 1.79 umol/kg, administered as single bolus dose at 20 mins of sustained ischemia (reference value: 64 +/- 5 mmHg); format: organism-based; conditions: in vivo
Oryctolagus cuniculus [4] = test: Toxicity in New Zealand white rabbit assessed as baseline heart rate at 1.79 umol/kg, administered as single bolus dose (reference value: 269 +/- 10 bpm); format: organism-based; conditions: in vivo
Oryctolagus cuniculus [5] = test: Toxicity in New Zealand white rabbit myocardial ischemia/reperfusion injury model assessed as heart rate at 1.79 umol/kg, administered as single bolus dose at 20 mins of sustained ischemia (reference value: 276 +/- 9 bpm); format: organism-based; conditions: in vivo
Oryctolagus cuniculus [6] = test: Toxicity in New Zealand white rabbit assessed as baseline mean blood pressure at 1.79 umol/kg, administered as single bolus dose (reference value: 74 +/- 5 mmHg); format: organism-based; conditions: in vivo
Oryctolagus cuniculus [7] = test: Toxicity in New Zealand white rabbit myocardial ischemia/reperfusion injury model assessed as heart rate at 1.79 umol/kg, administered as single bolus dose at 180 mins of reperfusion (reference value: 254 +/- 11 bpm); format: organism-based; conditions: in vivo, 3 h
Oryctolagus cuniculus [8] = test: (§1) Cardioprotective activity in New Zealand white rabbit myocardial ischemia/reperfusion injury model assessed as reduction in infarct size at 1.79 umol/kg, administered as single bolus dose at 20th min of sustained ischemia by TTC staining (reference value: 47.9 +/- 0.7 %); format: functional, Myocardium; set-up: scale not given: the % may be the effect or the level left
Oryctolagus cuniculus [9] = test: Toxicity in New Zealand white rabbit myocardial ischemia/reperfusion injury model assessed as mean blood pressure at 1.79 umol/kg, administered as single bolus dose at 180 mins of reperfusion (reference value: 60 +/- 4 mmHg); format: organism-based; conditions: in vivo, iv, 3 h
Oryctolagus cuniculus [10] = test: Toxicity in New Zealand white rabbit myocardial ischemia/reperfusion injury model assessed as mean blood pressure at 1.79 umol/kg, administered as single bolus dose at 180 mins of reperfusion in presence of SPT (reference value: 60 +/- 4 mmHg); format: organism-based; conditions: in vivo, 3 h
Oryctolagus cuniculus [11] = test: Toxicity in New Zealand white rabbit assessed as baseline heart rate at 1.79 umol/kg, administered as single bolus dose in presence of NaHS (reference value: 269 +/- 10 bpm); format: organism-based; conditions: in vivo
Oryctolagus cuniculus [12] = test: Toxicity in New Zealand white rabbit myocardial ischemia/reperfusion injury model assessed as mean blood pressure at 1.79 umol/kg, administered as single bolus dose at 20 mins of sustained ischemia in presence of NaHS (reference value: 64 +/- 5 mmHg); format: organism-based; conditions: in vivo, iv
Oryctolagus cuniculus [13] = test: as §1, with “20 mins before” for “20th min of”, “staining in presence of non selective adenosine receptor inhibitor SPT” for “staining”; format: functional, Myocardium; set-up: scale not given: the % may be the effect or the level left
Oryctolagus cuniculus [14] = test: Cardioprotective activity in New Zealand white rabbit myocardial ischemia/reperfusion injury model assessed as reduction in infarct size at 1.79 umol/kg, administered as single bolus dose at 20th min of sustained ischemia by TTC staining in presence of NAHS (reference value: 47.9 +/- 0.7 %); format: functional, Myocardium; set-up: scale not given: the % may be the effect or the level left
Oryctolagus cuniculus [15] = test: Toxicity in New Zealand white rabbit myocardial ischemia/reperfusion injury model assessed as mean blood pressure at 1.79 umol/kg, administered as single bolus dose at 180 mins of reperfusion in presence of NaHS (reference value: 60 +/- 4 mmHg); format: organism-based; conditions: in vivo, iv, 3 h
Oryctolagus cuniculus [16] = test: Toxicity in New Zealand white rabbit assessed as baseline heart rate at 1.79 umol/kg, administered as single bolus dose in presence of non selective adenosine receptor inhibitor SPT (reference value: 269 +/- 10 bpm); format: organism-based; conditions: in vivo
Oryctolagus cuniculus [17] = test: Toxicity in New Zealand white rabbit assessed as baseline mean blood pressure at 1.79 umol/kg, administered as single bolus dose in presence of SPT (reference value: 74 +/- 5 mmHg); format: organism-based; conditions: in vivo
Oryctolagus cuniculus [18] = test: Toxicity in New Zealand white rabbit myocardial ischemia/reperfusion injury model assessed as heart rate at 1.79 umol/kg, administered as single bolus dose at 20 mins of sustained ischemia in presence of NaHS (reference value: 276 +/- 9 bpm); format: organism-based; conditions: in vivo
Oryctolagus cuniculus [19] = test: Toxicity in New Zealand white rabbit myocardial ischemia/reperfusion injury model assessed as heart rate at 1.79 umol/kg, administered as single bolus dose at 180 mins of reperfusion in presence of NaHS (reference value: 254 +/- 11 bpm); format: organism-based; conditions: in vivo, iv, 3 h
Oryctolagus cuniculus [20] = test: Toxicity in New Zealand white rabbit myocardial ischemia/reperfusion injury model assessed as heart rate at 1.79 umol/kg, administered as single bolus dose at 180 mins of reperfusion in presence of non selective adenosine receptor inhibitor SPT (reference value: 254 +/- 11 bpm); format: organism-based; conditions: in vivo, 3 h
Oryctolagus cuniculus [21] = test: Toxicity in New Zealand white rabbit assessed as heart weight at 1.79 umol/kg, administered as single bolus dose in presence of non selective adenosine receptor inhibitor SPT (reference value: 7.2 +/- 0.3 g); format: organism-based; conditions: in vivo
[22] = Induction of H2S release in potassium phosphate buffer at 100 uM at pH 7.4 by Amperometric method; format: physicochemical; conditions: pH 7.4, 100 µM
Oryctolagus cuniculus [23] = test: Toxicity in New Zealand white rabbit myocardial ischemia/reperfusion injury model assessed as mean blood pressure at 1.79 umol/kg, administered as single bolus dose at 20 mins of sustained ischemia in presence of non selective adenosine receptor inhibitor SPT (reference value: 64 +/- 5 mmHg); format: organism-based; conditions: in vivo, iv
Oryctolagus cuniculus [24] = test: Toxicity in New Zealand white rabbit assessed as baseline mean blood pressure at 1.79 umol/kg, administered as single bolus dose in presence of NaHS (reference value: 74 +/- 5 mmHg); format: organism-based; conditions: in vivo
Oryctolagus cuniculus [25] = test: Toxicity in New Zealand white rabbit myocardial ischemia/reperfusion injury model assessed as heart rate at 1.79 umol/kg, administered as single bolus dose at 20 mins of sustained ischemia in presence of non selective adenosine receptor inhibitor SPT (reference value: 276 +/- 9 bpm); format: organism-based; conditions: in vivo
Oryctolagus cuniculus [26] = test: Toxicity in New Zealand white rabbit assessed as heart weight at 1.79 umol/kg, administered as single bolus dose in presence of NaHS (reference value: 7.2 +/- 0.3 g); format: organism-based; conditions: in vivo
Oryctolagus cuniculus [27] = test: Toxicity in New Zealand white rabbit assessed as baseline mean blood pressure at 3.58 umol/kg, administered as single bolus dose (reference value: 74 +/- 5 mmHg); format: organism-based; conditions: in vivo
RLF-6 [28] = test: Induction of H2S release in RLF-6 cells assessed as cGMP accumulation at 250 uM after 5 mins by enzyme immuno assay; format: functional, cell-based; conditions: Rattus norvegicus
Oryctolagus cuniculus [29] = test: Toxicity in New Zealand white rabbit myocardial ischemia/reperfusion injury model assessed as heart rate at 3.58 umol/kg, administered as single bolus dose at 180 mins of reperfusion (reference value: 254 +/- 11 bpm); format: organism-based; conditions: in vivo, 3 h
Oryctolagus cuniculus [30] = test: Toxicity in New Zealand white rabbit assessed as heart weight at 3.58 umol/kg, administered as single bolus dose (reference value: 7.2 +/- 0.3 g); format: organism-based; conditions: in vivo
Oryctolagus cuniculus [31] = test: Toxicity in New Zealand white rabbit myocardial ischemia/reperfusion injury model assessed as mean blood pressure at 3.58 umol/kg, administered as single bolus dose at 180 mins of reperfusion (reference value: 60 +/- 4 mmHg); format: organism-based; conditions: in vivo, 3 h
Oryctolagus cuniculus [32] = test: Toxicity in New Zealand white rabbit myocardial ischemia/reperfusion injury model assessed as mean blood pressure at 3.58 umol/kg, administered as single bolus dose at 20 mins of sustained ischemia (reference value: 64 +/- 5 mmHg); format: organism-based; conditions: in vivo
Oryctolagus cuniculus [33] = test: Cardioprotective activity in New Zealand white rabbit myocardial ischemia/reperfusion injury model assessed as reduction in infarct size at 3.58 umol/kg, administered as single bolus dose at 20th min of sustained ischemia by TTC staining (reference value: 47.9 +/- 0.7 %); format: functional, Myocardium; set-up: scale not given: the % may be the effect or the level left
Oryctolagus cuniculus [34] = test: Toxicity in New Zealand white rabbit assessed as baseline heart rate at 3.58 umol/kg, administered as single bolus dose (reference value: 269 +/- 10 bpm); format: organism-based; conditions: in vivo
[35] = Induction of H2S release in potassium phosphate buffer at pH 7.4 after 15 mins by methylene-blue assay; format: physicochemical; conditions: pH 7.4, 0.25 h
Oryctolagus cuniculus [36] = test: Toxicity in New Zealand white rabbit myocardial ischemia/reperfusion injury model assessed as heart rate at 3.58 umol/kg, administered as single bolus dose at 20 mins of sustained ischemia (reference value: 276 +/- 9 bpm); format: organism-based; conditions: in vivo
Oryctolagus cuniculus [37] = test: Increase in PLN phosphorylation at Ser16/Thr17 in tissue from ischemic area of myocardium in New Zealand white rabbit myocardial ischemia/reperfusion injury model at 1.79 umol/kg administered as single bolus dose at 10th min of reperfusion by Western blot analysis relative to control; format: functional, organism-based
Oryctolagus cuniculus [38] = test: Increase in VASP phosphorylation at Ser239 in tissue from ischemic area of myocardium in New Zealand white rabbit myocardial ischemia/reperfusion injury model at 1.79 umol/kg administered as single bolus dose at 10th min of reperfusion by Western blot analysis; format: functional, organism-based

SMILES: Nc1ncnc2c1ncn2[C@@H]1O[C@H](CO)[C@@H](O)[C@H]1O
- Activity (RLF-6 [1]): inactive

SMILES: Nc1ncnc2c1ncn2CCCCO
- Activity (Oryctolagus cuniculus [2]): 7.3 g
- Activity (Oryctolagus cuniculus [3]): 88 mmHg
- Activity (RLF-6 [1]): inactive
- Activity (Oryctolagus cuniculus [4]): 275 bpm
- Activity (Oryctolagus cuniculus [5]): 266 bpm
- Activity (Oryctolagus cuniculus [6]): 95 mmHg
- Activity (Oryctolagus cuniculus [7]): 270 bpm
- Activity (Oryctolagus cuniculus [8]): 32.4%
- Activity (Oryctolagus cuniculus [9]): 90 mmHg

SMILES: NC(=O)c1ccc(OCCCCn2cnc3c(N)ncnc32)cc1
- Activity (Oryctolagus cuniculus [2]): 7.3 g
- Activity (Oryctolagus cuniculus [10]): 72 mmHg
- Activity (Oryctolagus cuniculus [11]): 268 bpm
- Activity (Oryctolagus cuniculus [3]): 75 mmHg
- Activity (Oryctolagus cuniculus [12]): 65 mmHg
- Activity (Oryctolagus cuniculus [13]): 41.8%
- Activity (Oryctolagus cuniculus [4]): 260 bpm
- Activity (Oryctolagus cuniculus [14]): 22.3%
- Activity (Oryctolagus cuniculus [15]): 67 mmHg
- Activity (Oryctolagus cuniculus [16]): 278 bpm
- Activity (Oryctolagus cuniculus [5]): 258 bpm
- Activity (Oryctolagus cuniculus [17]): 82 mmHg
- Activity (Oryctolagus cuniculus [18]): 272 bpm
- Activity (Oryctolagus cuniculus [19]): 252 bpm
- Activity (Oryctolagus cuniculus [6]): 77 mmHg
- Activity (Oryctolagus cuniculus [20]): 268 bpm
- Activity (Oryctolagus cuniculus [21]): 7.1 g
- Activity (Oryctolagus cuniculus [7]): 262 bpm
- Activity (Oryctolagus cuniculus [8]): 26.6%
- Activity [22]: Not Active
- Activity (Oryctolagus cuniculus [23]): 76 mmHg
- Activity (Oryctolagus cuniculus [24]): 79 mmHg
- Activity (Oryctolagus cuniculus [25]): 259 bpm
- Activity (Oryctolagus cuniculus [9]): 71 mmHg
- Activity (Oryctolagus cuniculus [26]): 7.4 g

SMILES: NC(=S)c1ccc(OCCCCn2cnc3c(N)ncnc32)cc1
- Activity (Oryctolagus cuniculus [2]): 7.2 g
- Activity (Oryctolagus cuniculus [10]): 76 mmHg
- Activity (Oryctolagus cuniculus [3]): 82 mmHg
- Activity (Oryctolagus cuniculus [13]): 16.9%
- Activity (Oryctolagus cuniculus [4]): 266 bpm
- Activity (Oryctolagus cuniculus [27]): 78 mmHg
- Activity (RLF-6 [28]): Active
- Activity (Oryctolagus cuniculus [29]): 258 bpm
- Activity (Oryctolagus cuniculus [16]): 278 bpm
- Activity (Oryctolagus cuniculus [30]): 7.4 g
- Activity (Oryctolagus cuniculus [5]): 276 bpm
- Activity (Oryctolagus cuniculus [31]): 52 mmHg
- Activity (Oryctolagus cuniculus [32]): 40 mmHg
- Activity (Oryctolagus cuniculus [33]): 26.7%
- Activity (Oryctolagus cuniculus [17]): 81 mmHg
- Activity (Oryctolagus cuniculus [34]): 285 bpm
- Activity [35]: Dose-dependent effect
- Activity (Oryctolagus cuniculus [6]): 90 mmHg
- Activity (Oryctolagus cuniculus [20]): 276 bpm
- Activity (Oryctolagus cuniculus [21]): 7.5 g
- Activity (Oryctolagus cuniculus [7]): 255 bpm
- Activity (Oryctolagus cuniculus [8]): 16.6%
- Activity (Oryctolagus cuniculus [36]): 242 bpm
- Activity (Oryctolagus cuniculus [23]): 76 mmHg
- Activity (Oryctolagus cuniculus [37]): Active
- Activity (Oryctolagus cuniculus [25]): 270 bpm
- Activity (Oryctolagus cuniculus [9]): 80 mmHg
- Activity (Oryctolagus cuniculus [38]): Active

SMILES: CC1(C)O[C@@H]2[C@H](O1)[C@@H](COc1ccc(C(N)=S)cc1)O[C@H]2n1cnc2c(N)ncnc21
- Activity (RLF-6 [28]): Active
- Activity [35]: Dose-dependent effect

SMILES: [Na+].[SH-] [SODIUM HYDROSULFIDE]
- Activity (Oryctolagus cuniculus [2]): 7.1 g
- Activity (Oryctolagus cuniculus [3]): 76 mmHg
- Activity (Oryctolagus cuniculus [4]): 273 bpm
- Activity (Oryctolagus cuniculus [5]): 268 bpm
- Activity (Oryctolagus cuniculus [6]): 81 mmHg
- Activity (Oryctolagus cuniculus [7]): 262 bpm
- Activity (Oryctolagus cuniculus [9]): 68 mmHg
